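96-well plates; 48 h exposure; 5 concentrations. Endpoints by linear interpolation between flanking doses. Not reached: highest tested concentration assigned. GI50 = concentration required for 50% inhibition of growth.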 Calls of active or inactive are those of the source. Rule as the data show it: active = GI50 up to about 1.1 µM and inactive = higher.
Key:
Assay in all cases: NCI-60 cell line screen, 48 h
[1] = system: A498
[2] = system: HCC 2998
[3] = system: Hs-578T
[4] = system: K562
[5] = system: U-251
[6] = system: SK-MEL-5
[7] = system: SW-620
[8] = system: IGROV-1
[9] = system: NCI-H23
[10] = system: HT-29
[11] = system: HOP-92
[12] = system: TK-10
[13] = system: Malme-3M
[14] = system: HOP-62
[15] = system: UO-31
[16] = system: DU-145
[17] = system: A549
[18] = system: SNB-75
[19] = system: NCI/ADR-RES
[20] = system: MDA-N

Compound | GI50 [1] | GI50 [2] | GI50 [3] | GI50 [4] | GI50 [5] | GI50 [6] | GI50 [7] | GI50 [8] | GI50 [9] | GI50 [10] | GI50 [11] | GI50 [12] | GI50 [13] | GI50 [14] | GI50 [15] | GI50 [16] | GI50 [17] | GI50 [18] | GI50 [19] | GI50 [20]
O=C(Nc1cccc(C(F)(F)F)c1)C(=O)C(C(=O)c1ccc2ccccc2c1)C1OC(=O)c2ccccc21 (stereo unspecified) | 9.93 µM (inactive) | 10.8 µM (inactive) | 7.14 µM (inactive) | 5.38 µM (inactive) | 4.08 µM (inactive) | 10.5 µM (inactive) | 6.25 µM (inactive) | 18.2 µM (inactive) | 6.46 µM (inactive) | 13.5 µM (inactive) | 22.8 µM (inactive) | 22.6 µM (inactive) | 6.81 µM (inactive) | 11.5 µM (inactive) | 12.4 µM (inactive) | 26.5 µM (inactive) | 10.7 µM (inactive) | 12 µM (inactive) | – | –
CCN(CC)CCN(/C(=N/c1ccccc1)N1CCOCC1)c1ccccc1 | – | > 100 µM (inactive) | > 100 µM (inactive) | > 100 µM (inactive) | > 100 µM (inactive) | > 100 µM (inactive) | > 100 µM (inactive) | 48.4 µM (inactive) | 70 µM (inactive) | 42.1 µM (inactive) | – | > 100 µM (inactive) | > 100 µM (inactive) | 74.6 µM (inactive) | > 100 µM (inactive) | > 100 µM (inactive) | > 100 µM (inactive) | > 100 µM (inactive) | > 100 µM (inactive) | –
O=C(N/N=C/c1ccccc1O)c1ccccc1Nc1ccccc1C(=O)N/N=C/c1ccccc1O | > 100 µM (inactive) | > 100 µM (inactive) | – | 1 µM (active) | 3.48 µM (inactive) | 0.541 µM (active) | – | 0.458 µM (active) | 1.84 µM (inactive) | 0.518 µM (active) | 2.26 µM (inactive) | 5.87 µM (inactive) | 0.29 µM (active) | 0.432 µM (active) | 0.411 µM (active) | 2.25 µM (inactive) | 1.62 µM (inactive) | 3.09 µM (inactive) | 1 µM (active) | > 100 µM (inactive)
CN1CCC23c4c5ccc(O)c4OC2C(=NN=C2CCC4(O)C6Cc7ccc(O)c8c7C4(CCN6C)C2O8)CCC3(O)C1C5 (stereo unspecified) | > 100 µM (inactive) | > 100 µM (inactive) | – | > 100 µM (inactive) | > 100 µM (inactive) | > 100 µM (inactive) | > 100 µM (inactive) | > 100 µM (inactive) | > 100 µM (inactive) | > 100 µM (inactive) | > 100 µM (inactive) | > 100 µM (inactive) | > 100 µM (inactive) | > 100 µM (inactive) | > 100 µM (inactive) | – | > 100 µM (inactive) | > 100 µM (inactive) | – | –
O=C1CC(c2cccc(Cl)c2)n2cccc21 (stereo unspecified) | > 100 µM (inactive) | 88.7 µM (inactive) | 31.8 µM (inactive) | 61.4 µM (inactive) | > 100 µM (inactive) | – | > 100 µM (inactive) | – | > 100 µM (inactive) | > 100 µM (inactive) | 65.3 µM (inactive) | > 100 µM (inactive) | – | > 100 µM (inactive) | 26.5 µM (inactive) | > 100 µM (inactive) | > 100 µM (inactive) | 47.8 µM (inactive) | > 100 µM (inactive) | –
C[C@@H]1[C@@H]2[C@@H](C=C3C4CCC5Cc6nc7c(nc6C[C@@]5(C)C4C[C@H](O)[C@]32CO)CC2CCC3C4=C[C@H]5O[C@@]6(OC(C)(CO)C[C@@H]6O)[C@H](C)[C@@]5(O)[C@]4(C)[C@@H](O)CC3[C@]2(C)C7)O[C@]12CCC(C)(C)O2 (stereo partly specified) | 0.00883 µM (active) | 0.145 µM (active) | – | 0.0164 µM (active) | 0.0053 µM (active) | 0.0324 µM (active) | 0.0225 µM (active) | 0.387 µM (active) | 0.0328 µM (active) | 0.0625 µM (active) | 0.00815 µM (active) | 0.473 µM (active) | 0.101 µM (active) | 0.00311 µM (active) | 0.0575 µM (active) | – | 0.0137 µM (active) | 0.00038 µM (active) | – | –
CC(=O)OCC1OC(n2c(-c3cccs3)c3c(c(C#N)c2=S)-c2ccccc2CC3)C(OC(C)=O)C(OC(C)=O)C1OC(C)=O (stereo unspecified) | 7.66 µM (inactive) | 8.73 µM (inactive) | 7.52 µM (inactive) | 4.37 µM (inactive) | 10.1 µM (inactive) | 6.18 µM (inactive) | 15.5 µM (inactive) | 9.04 µM (inactive) | 19.5 µM (inactive) | 5.31 µM (inactive) | 2.51 µM (inactive) | 6.19 µM (inactive) | 7.36 µM (inactive) | 11.9 µM (inactive) | 2.97 µM (inactive) | 23.9 µM (inactive) | 13.2 µM (inactive) | 1.36 µM (inactive) | 17.7 µM (inactive) | –
CNC(=O)OCc1nc(SC2CCCCO2)n(C)c1COC(=O)NC (stereo unspecified) | > 100 µM (inactive) | > 100 µM (inactive) | – | > 100 µM (inactive) | > 100 µM (inactive) | > 100 µM (inactive) | > 100 µM (inactive) | > 100 µM (inactive) | > 100 µM (inactive) | > 100 µM (inactive) | > 100 µM (inactive) | – | > 100 µM (inactive) | > 100 µM (inactive) | > 100 µM (inactive) | – | > 100 µM (inactive) | > 100 µM (inactive) | > 100 µM (inactive) | –
CC(C)(C)OC(=O)N(CCCCN(CCCNC(=O)C(F)(F)F)C(=O)OC(C)(C)C)CCCNC(=O)C(F)(F)F | > 100 µM (inactive) | > 100 µM (inactive) | > 100 µM (inactive) | 98.9 µM (inactive) | > 100 µM (inactive) | 79.3 µM (inactive) | > 100 µM (inactive) | > 100 µM (inactive) | > 100 µM (inactive) | > 100 µM (inactive) | > 100 µM (inactive) | > 100 µM (inactive) | – | 38.7 µM (inactive) | > 100 µM (inactive) | > 100 µM (inactive) | > 100 µM (inactive) | > 100 µM (inactive) | 91.2 µM (inactive) | –
COc1cc2c(c(OC)c1O)-c1ccc(SC)c(=O)cc1C(NC(C)=O)CC2 (stereo unspecified) | 0.195 µM (active) | 0.0261 µM (active) | – | < 0.01 µM (active) | < 0.0146 µM (active) | < 0.01 µM (active) | < 0.01 µM (active) | 0.0593 µM (active) | 0.0167 µM (active) | 0.0119 µM (active) | 0.0124 µM (active) | 2.29 µM (inactive) | < 0.01 µM (active) | 0.0405 µM (active) | 5.96 µM (inactive) | – | 0.04 µM (active) | < 0.01 µM (active) | – | –
CCOC(=O)CCc1c(C(=O)OCC)[nH]c(/C=C2\NC(=O)C(C)=C2CC)c1C | – | – | – | > 100 µM (inactive) | 15.3 µM (inactive) | – | – | 4.59 µM (inactive) | – | 50.7 µM (inactive) | 16.1 µM (inactive) | – | 10.4 µM (inactive) | 14.5 µM (inactive) | 44 µM (inactive) | 19.3 µM (inactive) | 40.1 µM (inactive) | 13.5 µM (inactive) | 12.9 µM (inactive) | –
N#Cc1nc(NC(=O)c2ccccc2)sc1N | > 10 µM (inactive) | > 10 µM (inactive) | – | > 10 µM (inactive) | > 10 µM (inactive) | > 10 µM (inactive) | > 10 µM (inactive) | > 10 µM (inactive) | > 10 µM (inactive) | > 10 µM (inactive) | > 10 µM (inactive) | > 10 µM (inactive) | > 10 µM (inactive) | > 10 µM (inactive) | > 10 µM (inactive) | > 10 µM (inactive) | > 10 µM (inactive) | > 10 µM (inactive) | > 9.48 µM (inactive) | > 10 µM (inactive)
CN(C)C(=N)/N=C(\N)Nc1cccc(Cl)c1 | – | > 100 µM (inactive) | > 100 µM (inactive) | > 100 µM (inactive) | > 100 µM (inactive) | 28.1 µM (inactive) | > 100 µM (inactive) | 24.5 µM (inactive) | > 100 µM (inactive) | > 100 µM (inactive) | – | > 100 µM (inactive) | 45.3 µM (inactive) | > 100 µM (inactive) | 78 µM (inactive) | – | > 100 µM (inactive) | 91.2 µM (inactive) | > 100 µM (inactive) | 83.9 µM (inactive)
OCCCNc1ccnc2cc(Cl)ccc12 | > 100 µM (inactive) | > 100 µM (inactive) | – | > 100 µM (inactive) | > 100 µM (inactive) | > 100 µM (inactive) | > 100 µM (inactive) | > 100 µM (inactive) | > 100 µM (inactive) | > 100 µM (inactive) | > 100 µM (inactive) | 21 µM (inactive) | > 100 µM (inactive) | > 100 µM (inactive) | 25.5 µM (inactive) | – | > 100 µM (inactive) | > 100 µM (inactive) | – | –
CCN(CC)CCNc1ccc2ncn3c4cc(OC)c(OC)c(O)c4c(=O)c1c23 | 15.5 µM (inactive) | 10.5 µM (inactive) | 13.2 µM (inactive) | 5.89 µM (inactive) | 12.9 µM (inactive) | 15.5 µM (inactive) | 1.4 µM (inactive) | 12.5 µM (inactive) | 2.69 µM (inactive) | 3.8 µM (inactive) | 1.61 µM (inactive) | 13.8 µM (inactive) | 18 µM (inactive) | 11.4 µM (inactive) | 12.3 µM (inactive) | 10.2 µM (inactive) | 11.9 µM (inactive) | 2.78 µM (inactive) | 3.94 µM (inactive) | –
COc1cc(C2SCC(=O)N2c2ccc(-c3ccc(-n4c(-c5ccccc5)nc5ccccc5c4=O)cc3)cc2)cc(OC)c1OC (stereo unspecified) | 44.3 µM (inactive) | 55.2 µM (inactive) | 20 µM (inactive) | 13.6 µM (inactive) | 22.2 µM (inactive) | 22.4 µM (inactive) | 17.3 µM (inactive) | 19 µM (inactive) | 73.1 µM (inactive) | 33.3 µM (inactive) | 50.7 µM (inactive) | 63.1 µM (inactive) | 31.7 µM (inactive) | 23.3 µM (inactive) | 25.2 µM (inactive) | 78 µM (inactive) | 24.6 µM (inactive) | – | 29.2 µM (inactive) | –
